The values that follow come from ChEMBL document CHEMBL1201862, “PubChem BioAssay data set” (2004).

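Interpolation was linear, between the two tested concentrations surrounding the appropriate level; five concentrations were tested over 48 hours in 96-well plates. GI50 = concentration required for 50% inhibition of growth.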 Calls of active or inactive are those of the source. No stated cut-off is given here; in the data, active = GI50 up to about 1.1 µM and inactive = higher. Bounds are passed on as bounds.

Among the test systems are MOLT-4; MDA-MB-231; HOP-62; SK-MEL-5; NCI-H460; SN12C; RXF 393; RPMI-8226; A549; UACC-62; NCI/ADR-RES; SNB-75; COLO 205; NCI-H23; T47D; SK-OV-3; SK-MEL-28; SW-620; HCC 2998; A498.
Holding throughout (assay): NCI-60 cell line screen, 48 h

Turning to `COc1cc(O)ccc1C(=S)SC`, the GI50 in the test on MOLT-4 was 20.8 µM (inactive); in the test on MDA-MB-231 it was 16.2 µM (inactive); with HOP-62, > 100 µM (inactive); in the test with SK-MEL-5, 26.5 µM (inactive); with NCI-H460, 77.6 µM (inactive); with SN12C, 1.45 µM (inactive). Also, the GI50 is 89.3 µM (inactive) in the test on RXF 393; 21.8 µM (inactive) in the test on RPMI-8226; 38.8 µM (inactive) in the test on A549; 28.3 µM (inactive) with UACC-62; 38.9 µM (inactive) with NCI/ADR-RES; > 100 µM (inactive) in the test with SNB-75. The GI50 in the test with COLO 205 is > 100 µM (inactive); with NCI-H23 it was 40.6 µM (inactive); in the test on T47D it was 70.3 µM (inactive); in the test with SK-OV-3, > 100 µM (inactive); with SK-MEL-28, > 100 µM (inactive); in the test on SW-620 it was > 100 µM (inactive).
For `CC(C)(C)OC(=O)NC(Cc1ccccc1)OCc1ccccc1` (configuration not stated), the GI50 with MOLT-4 is 17.4 µM (inactive); in the test with MDA-MB-231 it was 15.3 µM (inactive); with HCC 2998, 23.9 µM (inactive); with HOP-62, 18.9 µM (inactive); in the test with SK-MEL-5 it was 15.5 µM (inactive); with NCI-H460 it was 21.3 µM (inactive). Also, the GI50 with SN12C is 26.1 µM (inactive); with RXF 393 it was 20.8 µM (inactive); with RPMI-8226, 26 µM (inactive); with A549 it was 17.6 µM (inactive); in the test with UACC-62 it was 15 µM (inactive); with NCI/ADR-RES it was 26.7 µM (inactive). In addition, the GI50 with SNB-75 was 12.2 µM (inactive); with COLO 205 it was 35 µM (inactive); with NCI-H23 it was 16 µM (inactive); in the test on T47D it was 14.6 µM (inactive); in the test on SK-OV-3 it was 17.6 µM (inactive); in the test with SK-MEL-28 it was 17.9 µM (inactive). Also, the GI50 with SW-620 was 17.2 µM (inactive).
Turning to `CC(=O)SSC1(Cl)C(C)(C)C(Cl)(SSC(C)=O)C1(C)C` (configuration not stated), the GI50 was > 100 µM (inactive) in the test with MDA-MB-231; 44.3 µM (inactive) in the test with HOP-62; 29.8 µM (inactive) in the test with SK-MEL-5; 28.5 µM (inactive) in the test on NCI-H460; 77.8 µM (inactive) with SN12C; 21 µM (inactive) in the test with RXF 393. Besides, the GI50 in the test on A549 is 73.6 µM (inactive); with UACC-62, 52.6 µM (inactive); in the test on NCI/ADR-RES, 40.2 µM (inactive); with SNB-75 it was 30.4 µM (inactive); in the test with COLO 205 it was > 100 µM (inactive); with A498, 67.5 µM (inactive). Also, the GI50 in the test on NCI-H23 is 57.1 µM (inactive); in the test with T47D it was 20.8 µM (inactive); in the test with SK-OV-3 it was > 100 µM (inactive); in the test on SK-MEL-28 it was > 100 µM (inactive); with SW-620 it was 40.1 µM (inactive).
For `Oc1c(Cl)c(Cl)c(O)c(-c2cnc(-c3ncc(-c4c(O)c(Cl)c(Cl)c(O)c4Cl)s3)s2)c1Cl`, the GI50 in the test with MOLT-4 is > 100 µM (inactive); with MDA-MB-231 it was 20.7 µM (inactive); with HCC 2998, 36.6 µM (inactive); with HOP-62 it was 54.2 µM (inactive); with SK-MEL-5, 7.8 µM (inactive); with NCI-H460 it was 30.1 µM (inactive). Further, the GI50 is 27.4 µM (inactive) in the test on SN12C; 18.9 µM (inactive) in the test on RXF 393; 29.6 µM (inactive) in the test with A549; 19.7 µM (inactive) with UACC-62; 25.3 µM (inactive) in the test on NCI/ADR-RES; 28.1 µM (inactive) in the test on SNB-75. The GI50 is 28.6 µM (inactive) in the test with COLO 205; 19.3 µM (inactive) in the test with NCI-H23; 29.9 µM (inactive) in the test on T47D; 41.2 µM (inactive) in the test on SK-OV-3; 29.6 µM (inactive) with SK-MEL-28; 21.4 µM (inactive) with SW-620.
As for `CC(=O)OC[C@@H](OC(C)=O)[C@@H](OC(C)=O)[C@H]1OC[C@@H]2C[C@H]([C@H]1OC(C)=O)N(Cc1ccccc1)O2`, the GI50 in the test on MOLT-4, with MDA-MB-231, in the test on HCC 2998, with HOP-62, with SK-MEL-5 and in the test on NCI-H460 was > 100 µM (inactive) each time. Also, the GI50 with SN12C, in the test on RXF 393, with RPMI-8226, in the test on A549, with UACC-62 and in the test with NCI/ADR-RES was > 100 µM (inactive) each time. In addition, the GI50 in the test with SNB-75 was > 100 µM (inactive); with COLO 205, > 100 µM (inactive); in the test with NCI-H23 it was > 100 µM (inactive); with T47D it was > 100 µM (inactive); in the test with SK-OV-3, 93.8 µM (inactive); in the test with SK-MEL-28 it was > 100 µM (inactive). Further, the GI50 in the test on SW-620 is > 100 µM (inactive).
As for `C/C(=N\NC(=S)NNC(=S)N(C)c1ccccc1)c1ccccn1`, the GI50 was 0.43 µM (active) in the test with MOLT-4; 6.22 µM (inactive) in the test with MDA-MB-231; 1.32 µM (inactive) with HCC 2998; 0.885 µM (active) with HOP-62; 0.681 µM (active) with NCI-H460; 1.6 µM (inactive) in the test on SN12C. The GI50 in the test on RXF 393 was 4.19 µM (inactive); with RPMI-8226, 0.912 µM (active); in the test on A549 it was 1.11 µM (active); with NCI/ADR-RES, 2.66 µM (inactive); in the test on SNB-75, 6.76 µM (inactive); with COLO 205 it was 0.673 µM (active). The GI50 is 2.79 µM (inactive) with NCI-H23; 2.96 µM (inactive) in the test with T47D; 1.48 µM (inactive) in the test with SK-OV-3; 4.25 µM (inactive) in the test on SK-MEL-28; 0.489 µM (active) in the test on SW-620.
Regarding `COc1cc(-c2c[nH]c3ccccc23)nc(-c2c[nH]c3ccccc23)n1`, the GI50 was 2.9 µM (inactive) in the test on MOLT-4; 2.49 µM (inactive) with MDA-MB-231; 4.22 µM (inactive) in the test with HCC 2998; 8.89 µM (inactive) in the test with HOP-62; 5 µM (inactive) in the test on SK-MEL-5; 3.08 µM (inactive) with NCI-H460. The GI50 in the test with RPMI-8226 was 2.8 µM (inactive); with A549 it was 3.27 µM (inactive); in the test with UACC-62 it was 6.18 µM (inactive); with NCI/ADR-RES it was 8.87 µM (inactive); in the test with SNB-75, 6.1 µM (inactive); in the test on COLO 205, 8.32 µM (inactive). For the same compound, the GI50 was 2.3 µM (inactive) in the test on A498, 5.19 µM (inactive) in the test with T47D, 10.9 µM (inactive) with SK-OV-3 and 7.62 µM (inactive) with SW-620.
Consider `COc1cc2c(cc1OC)-c1cc3ccc(OC)c(OC)c3c[n+]1CC2` [PALMATINE CHLORIDE], for which the GI50 in the test with MOLT-4 was > 100 µM (inactive); with MDA-MB-231 it was > 100 µM (inactive); in the test with HCC 2998, > 100 µM (inactive); in the test on HOP-62, > 100 µM (inactive); in the test on SK-MEL-5 it was 34.8 µM (inactive); in the test on NCI-H460, > 100 µM (inactive). Moreover, the GI50 in the test on SN12C, in the test on RXF 393, in the test on RPMI-8226, in the test with A549, in the test on UACC-62 and with NCI/ADR-RES was > 100 µM (inactive) throughout. In addition, the GI50 was > 100 µM (inactive) with SNB-75; 24.4 µM (inactive) in the test on COLO 205; 83.4 µM (inactive) in the test with T47D; > 100 µM (inactive) in the test with SK-OV-3; > 100 µM (inactive) in the test on SK-MEL-28; > 100 µM (inactive) in the test with SW-620.
